Earlier results, collected in US20100137357A1, “COMPOSITIONS AND METHODS FOR HYPERHIDROSIS” (priority 2008, published 2010).

Test system: serous and seromucous glands
Details: humans, applied locally to the nasal mucosa

CC(C)[N+]1(C)[C@@H]2CC[C@H]1CC(OC(=O)C(CO)c1ccccc1)C2.[Br-] (stereo partly shown) [ipratropium bromide]
secretions from the serous and seromucous glands: inhibits secretions
